The subject of assay [1] is LPS-induced phosphorylation of ERK1/2 and p38 MAPK. Put plainly: Western blot of MAPK pathway in LPS-stimulated RAW 264.7 cells. Type of assay: cell-based, murine. Here is the method:
As previously described, RAW264.7 cells were cultured and treated with LPS and synthetic peptides. After 18 h, cells were washed with PBS and lysed by incubating with RIPA lysis buffer cocktail (RIPA Lysis buffer, PMSF (1 mM), Protease inhibitor (1 μg/mL), phosphatase inhibitor (1 mM)) at […] for 30 minutes. Post incubation, cell lysate was collected by scraping cells and centrifuged at 12000 rpm for 15 min.
The protein concentration was determined using the Bicinchoninic acid kit method with bovine serum albumin as the standard (provided in the kit), according to the manufacturer's instructions. Protein bands were electrophoretically transferred to a polyvinylidene difluoride (PVDF) membrane via semi-dry transfer blotting, Membranes were blocked with 5% BSA in PBST (1% Tween 20 in PBS) at 20-24° C. for 1 h, then incubated with primary antibodies against IL-10, TLR 4, VEGF, P38 p-p38, ERK and p-ERK, the dilutions are listed in table 3., at 4° C. overnight. GAPDH was used as a protein-loading control. The membrane was washed 3 times (10 min. each) with Tris-buffered saline/Tween 20 (TBST) and then treated with horseradish peroxidase (HRP)-conjugated secondary antibody (1:10000) for 1 h. The membrane was washed again with TBST. The membrane-binding antibodies were visualized later with the ECL detection reagent and images were acquired in a Fusion SL Imaging System. Band density was analyzed by densitometry using Image J software.
In general terms: Immunoblotting shows a protein as a band on a membrane.

The subject of assay [2] is LPS-stimulated RAW 264.7 cells. Put plainly: RT-qPCR of cytokine mRNA in LPS-stimulated RAW 264.7 cells. In kind it is cell-based, murine. Particulars: vs LPS control. The procedure: Total cellular RNA was isolated using the RNA isoplus reagent (Takara Bioscience, India) following the manufacturer's instructions. RNA was quantified spectrophotometrically by absorption measurements at 260 and 280 nm using the nano drop system.
As per table 8, RNA and the reaction mixture were mixed in PCR a tube and incubated in a thermal cycler for 5 min at 65° C. in and then cooled immediately on ice. Further, in the same tube, the step 2 reaction mixture was added and further incubated in the thermal cycler as mentioned below.
Primers were designed using the Primer3 online tool. GAPDH was used as a normalizing control. The sequence of primers used is provided in below table 10. Real-Time PCR was performed according to the manufacturer's protocol using Takara biosystem's real-time PCR mix (Takara, Bio-India) with ROX as a passive reference dye using applied Biosystem's step-one Real-Time PCR system. The following PCR program was used for all real-time PCR-based experiments: initial denaturation at 95° C. for 2 minutes, followed by 40 cycles of denaturation at 95° C. for 15 seconds, annealing at 60° C. for 30 seconds, extension at 60° C. for 15 seconds.
For quantification of gene expression, CT values of each gene were normalized to GAPDH and calibrated to the appropriate control sample using the SYBR Green-based comparative CT method (2-ΔΔCt). Fold change was calculated using the formula 2-ΔΔct.

Ends that are not written are not given here.

In the case of “FAKKFAK [IS 111, Phe-Ala-Lys-Lys-Phe-Ala-Lys]”, the “IL-10 levels (western blot)” value in assay [1] (IS111 treated cells) is recorded as “increased”. Moreover, in assay [1] (LPS-induced, western blot), the “Phosphorylation of ERK (p-ERK1/2)” value is on record as “significantly inhibited”. Besides, in assay [1] (concentration-dependent, western blot), the “LPS-induced increase of p38 phosphorylation” value is recorded as “markedly prevented”. In addition, in assay [2] (dose dependent), the “CCL2 mRNA expression” value is “reduction”. Further, in assay [2], the “IL-1β mRNA expression” value is recorded as “dose dependently reduced”, the “IL-6 mRNA expression” value is recorded as “significant reduction” and the “TNF-α mRNA expression” value is “significant reduction”.

Source of the values: patent US20260226101A1, “PEPTIDE WITH ANTI-INFLAMMATORY AND ANTI-MICROBIAL ACTIVITY” (priority 2023, published 2026).
